Legend:
MCF-7 cells [1] = test: Flow cytometry of cell surface MHC class I antigen (W6/32 antibody), MCF-7 cells; format: cell-based, human; conditions: TSA 100 nM, 24 hours, vs non-treated
Experimental: (§1) Using the same cells as those in the examples 1 and 2, MCF-7 cells and HMC-1 cells were cultured for 24 hours in the presence of HDAC inhibitor TSA (100 nM) or for 48 hours in the presence of HDAC inhibitor VPA (4 mM), respectively, and the level of MHC class I antigen expressing on the cell surface was analyzed by a flow cytometer (Becton Dickinson).
(§2) (1) 1×10^6 cells were floated in […] PBS buffer, added a primary antibody (an antipan-HLA class I antibody W6/32 (Barnstable, C. J., Bodmer, W. J., Brown, G., Galfre, G., Milstein, C., Williams, A. F., and Zeigler, A. (1978) Cell 14, 9-20)) and incubated for 40 minutes at 4° C. (2) The cells were washed twice with PBS. (3) To the suspended cell was added a secondary antibody (FITC-labeled anti-mouse IgG antibody (IPL, USA)) and incubated for 40 minutes at 4° C. (4) The cells were washed twice with PBS, floated in PBS added with 1% formalin followed by analyzing FITC level of the cell surface by a flow cytometer.

HMC-1 cells [2] = test: Flow cytometry of cell surface MHC class I antigen (W6/32 antibody), HMC-1 cells; format: cell-based, human; conditions: vs non-treated
Experimental: as §1, §2

MCF-7 cells [3] = test: Chromatin immunoprecipitation with anti-acetylated histone H3 antibody and PCR of B2M gene, MCF-7 cells; format: cell-based, human; conditions: 100 nM TSA, 24 hours
Experimental: (§3) Human breast cancer cell lines, that is, MCF-7 cells and HMC-1 cells were used to culture in the presence of 100 nM TSA (Sigma, USA) for 24 hours or 4 mM VPA (Sigma, USA) for 48 hours, respectively followed by extracting chromatin from the cells according to the manufacturer's instructions (Upstate Inc., USA) and immunoprecipitating the chromatin using anti-acetylated histone H3 antibody (Upstate Inc., USA) (see Assam El-Osta, et al. 2002. MOLECULAR AND CELLULAR BIOLOGY 22(6). p. 1844-1857). The genes binding to the acetylated histones were amplified by using PCR with the B2M gene-specific primers ([…] and […]), electrophoresed on 1% agarose gel followed by detecting with a transilluminator in the presence of ethidium bromide.

HMC-1 cells [4] = test: Western blot of intracellular B2M, HLA class I heavy chain and actin, HMC-1 cells; format: cell-based, human; conditions: TSA 100 nM, 24 hours
Experimental: (§4) (1) Using the same cells as those in the example 1, MCF-7 cells and HMC-1 cells were cultured in the presence of TSA, a HDAC inhibitor, (100 nM) for 24 hours respectively, followed by harvesting them. (2) 1×10^6 cells are lysed in […] cell lysate (RIPA buffer) and a soluble fraction is harvested as a lysate. SDS sample buffer was added to the lysate. (3) The protein samples were loaded on 7.5% SDS polyacrylamide gel and electrophoresed. (4) The proteins in the gel were transferred on a PVDF membrane (Millipore). (5) The transferred membrane was immersed in 5% skim milk in PBS and blocked for about one hour. (6) The transferred membrane was immersed in a primary antibody (anti-pan-HLA class I heavy chain antibody EMR8-5 (Hokudo, Sapporo), or anti-B2M antibody EMRB6 (Hokudo, Sapporo), or anti-actin antibody (DAKO), and incubated for one hour at room temperature. (7) The transferred membrane was washed with a lavage PBS-T (0.05% Tween 20/PBS, pH7.4) three times. (8) The transferred membrane was immersed in a secondary antibody peroxidase-labeled anti-mouse IgG antibody (KPL, USA) and incubated for one hour at room temperature. (9) The transferred membrane was washed with a lavage PBS-T (0.05% Tween 20/PBS, pH7.4) three times. […] (11) Luminescent signals were detected by exposure to X ray film.

class I and II HDAC = conditions: Non-patent documents 5 and 6; cited from earlier work
MCF-7 cells [5] = test: Western blot of intracellular B2M, HLA class I heavy chain and actin, MCF-7 cells; format: cell-based, human; conditions: TSA 100 nM, 24 hours
Experimental: as §4

[6] = system: HIV infection T cells (clone 8E5); test: Flow cytometry of cell surface HLA class I, HIV infection T cells; format: cell-based; conditions: HIV infection T cells (8E5), 4 mM valproic acid, 48 hours
Experimental: HIV infection T cells (clone 8E5, purchased from ATCC) were cultured in 4 mM valproic acid-added culture medium (RPMI1640) or non additive culture medium for 48 hours, and reacted with an anti-pan-HLA class I antibody, W6/32 antibody and with FITC-labeled anti-mouse IgG antibody for 40 minutes respectively, and the cells were fixed in 0.1% formalin/PBS. The fluorescence intensities were measured by flow cytometer (FACScan, Beckton Dickinson).

[7] = system: EB virus persistent infection B cells (LG2EBV cells); test: Flow cytometry of cell surface HLA class I, EB virus persistent infection B cells; format: cell-based; conditions: 4 mM valproic acid, 48 hours
Experimental: (§5) EB virus persistent infection B cells (LG2EBV cells) were cultured in 4 mM valproic acid-added culture medium (RPMI1640) or non additive culture medium for 48 hours, and reacted with an anti-pan-HLA class I antibody, W6/32 antibody and with FITC-labeled anti-mouse IgG antibody for 40 minutes respectively, and the cells were fixed in 0.1% formalin/PBS. The fluorescence intensities were measured by flow cytometer (FACScan, Beckton Dickinson).

[8] = system: Papilloma virus persistent infection cells (HeLa cells); test: Flow cytometry of cell surface HLA class I, papilloma virus persistent infection cells; format: cell-based; conditions: 4 mM valproic acid, 48 hours
Experimental: as §5, with “Papilloma” for “EB”, “infection” for “infection B”, “(HeLa” for “(LG2EBV”, “(FACS can,” for “(FACScan,”

HMC-1 cells [9] = test: Chromatin immunoprecipitation with anti-acetylated histone H3 antibody and PCR of B2M gene, HMC-1 cells; format: cell-based, human; conditions: 4 mM VPA, 48 hours
Experimental: as §3

[10] = system: human breast cancer cell line MCF7 cells transplanted into SCID mice; test: Immunostaining of MCF7 tumor transplanted into SCID mice after oral VPA; format: in vivo; conditions: SCID mouse, water containing 0.4% VPA for 10 days, vs control
Experimental: A human breast cancer cell line MCF7 cells were transplanted into SCID mice. […] One mouse was supplied with water containing 0.4% valproic acid (VPA, Sigma) for 10 days, and the other mouse was supplied with water with no additive as control. […] Following the method according to example 4, treatment of tissue slices as well as immunostaining with anti-HLA class I antibody (EMR8-5) and anti-B2M antibody (EMR-B6) were performed.

[11] = system: Measles virus persistent infection B cells (Raji-ZH cells); test: Flow cytometry of cell surface HLA class I, measles virus persistent infection B cells; format: cell-based; conditions: 4 mM valproic acid, 48 hours
Experimental: as §5, with “Measles” for “EB”, “(Raji-ZH” for “(LG2EBV”

[12] = system: Mumps virus persistent infection B cells (Akata-MP1 cells); test: Flow cytometry of cell surface HLA class I, mumps virus persistent infection B cells; format: cell-based; conditions: 4 mM valproic acid, 48 hours
Experimental: as §5, with “Mumps” for “EB”, “(Akata-MP1” for “(LG2EBV”

SMILES | increase of MHC class I level of the cell surface (MCF-7 cells [1]) | increase of MHC class I level of the cell surface (HMC-1 cells [2]; TSA 100 nM, 24 hours) | B2M gene detected in anti-acetylated histone H3 immunoprecipitate (MCF-7 cells [3]) | expression level of intracellular HLA heavy chain and actin proteins (HMC-1 cells [4]) | level of intracellular B2M protein (HMC-1 cells [4]) | HDAC class selectivity (class I and II HDAC) | expression level of intracellular HLA heavy chain and actin proteins (MCF-7 cells [5]) | level of intracellular B2M protein (MCF-7 cells [5]) | HLA class I level on a cell surface [6] | HLA class I level on a cell surface [7] | HLA class I level on a cell surface [8] | increase of MHC class I level of the cell surface (HMC-1 cells [2]; VPA 4 mM, 48 hours) | B2M gene detected in anti-acetylated histone H3 immunoprecipitate (HMC-1 cells [9]) | expression level of B2M in tumor [10] | expression level of HLA class I antigen in tumor [10] | HLA class I level on a cell surface [11] | HLA class I level on a cell surface [12]
CC(/C=C/C(=O)NO)=C\[C@@H](C)C(=O)c1ccc(N(C)C)cc1 [TSA, tricostatin A] | about 10 times | about 10 times | B2M gene was detected together with acetylated histones | no great difference | remarkably increased | inhibits class I and II HDAC | no great difference | remarkably increased |  |  |  |  |  |  |  |  | 
CCCC(CCC)C(=O)O [VPA, valproic acid] |  |  |  |  |  | preferably inhibits class I MAC compared with class II HDAC |  |  | recovery of expression was observed | recovery of expression was observed | recovery of expression was observed | about 10 times | B2M gene was detected together with acetylated histones | increased compared to control group | increased compared to control group | recovery of expression was observed | recovery of expression was observed
